target: T1, human PAH with the R408W mutation (Homo sapiens, UniProt P00439, R408W); test: Cell Based Phenylalanine Flux Assay; conditions: A375 cells expressing human PAH R408W; 24 hrs compound incubation; 13C-Tyrosine by LC-MS; average where tested multiple times; read-out: AC50;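 note: after compound treatment, cells received sepiapterin plus isotope-labelled Phenylalanine for 4 hours, then labelled Tyrosine in the medium was quantified, 10-point 2-fold dilution series run in duplicate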
T1 construct: expressed in transfected cells
T1 sequence (P00439 1-452 R408W): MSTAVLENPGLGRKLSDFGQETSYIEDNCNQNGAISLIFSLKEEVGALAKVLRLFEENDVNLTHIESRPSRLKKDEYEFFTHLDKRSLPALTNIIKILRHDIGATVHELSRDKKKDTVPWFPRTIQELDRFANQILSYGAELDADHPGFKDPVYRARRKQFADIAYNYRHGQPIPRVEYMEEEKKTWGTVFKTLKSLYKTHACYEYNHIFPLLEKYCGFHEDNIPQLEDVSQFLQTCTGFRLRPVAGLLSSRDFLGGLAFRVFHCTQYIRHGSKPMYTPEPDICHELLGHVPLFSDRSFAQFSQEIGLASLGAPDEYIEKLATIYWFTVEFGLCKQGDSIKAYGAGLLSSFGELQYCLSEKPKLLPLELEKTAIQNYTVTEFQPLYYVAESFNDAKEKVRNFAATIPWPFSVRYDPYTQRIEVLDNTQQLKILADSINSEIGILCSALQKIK

SMILES	AC50 [µM]
Cn1ccc(-c2nnc(C(=O)N3CCc4[nH]cnc4[C@@H]3c3cc4c(F)cccn4n3)s2)n1 [Example 1994, (R)-(4-(4-fluoropyrazolo[1,5-a]pyridin-2-yl)-1,4,6,7-tetrahydro-5H-imidazo[4,5-c]pyridin-5-yl)(5-(1-methyl-1H-pyrazol-3-yl)-1,3,4-thiadiazol-2-yl)methanone]	> 5
Cn1ccc(-c2nnc(C(=O)N3CCc4[nH]cnc4[C@H]3c3cc4c(F)cccn4n3)s2)n1 [Example 1995, (S)-(4-(4-fluoropyrazolo[1,5-a]pyridin-2-yl)-1,4,6,7-tetrahydro-5H-imidazo[4,5-c]pyridin-5-yl)(5-(1-methyl-1H-pyrazol-3-yl)-1,3,4-thiadiazol-2-yl)methanone]	< 0.5
Cc1cccn2nc([C@@H]3c4nc[nH]c4CCN3C(=O)c3nnc(C4CC4)s3)cc12 [Example 1997, (S)-(5-cyclopropyl-1,3,4-thiadiazol-2-yl)(4-(4-methylpyrazolo[1,5-a]pyridin-2-yl)-1,4,6,7-tetrahydro-5H-imidazo[4,5-c]pyridin-5-yl)methanone]	0.5 to 1
Cc1cccn2nc([C@@H]3c4nc[nH]c4CCN3C(=O)c3nnc(-c4ccn(C)n4)s3)cc12 [Example 1998, (S)-(5-(1-methyl-1H-pyrazol-3-yl)-1,3,4-thiadiazol-2-yl)(4-(4-methylpyrazolo[1,5-a]pyridin-2-yl)-1,4,6,7-tetrahydro-5H-imidazo[4,5-c]pyridin-5-yl)methanone]	< 0.5
O=C(c1nc2ccccc2s1)N1CCc2[nH]cnc2[C@@H]1c1cc2ccccn2n1 [Example 2001, (R)-benzo[d]thiazol-2-yl(4-(pyrazolo[1,5-a]pyridin-2-yl)-1,4,6,7-tetrahydro-5H-imidazo[4,5-c]pyridin-5-yl)methanone]	> 5
O=C(c1nc2ccccc2s1)N1CCc2[nH]cnc2[C@H]1c1cc2c(F)cccn2n1 [Example 2002, (S)-benzo[d]thiazol-2-yl(4-(4-fluoropyrazolo[1,5-a]pyridin-2-yl)-1,4,6,7-tetrahydro-5H-imidazo[4,5-c]pyridin-5-yl)methanone]	0.5 to 1
O=C(c1nc2ccccc2s1)N1CCc2[nH]cnc2[C@@H]1c1cc2c(F)cccn2n1 [Example 2003, (R)-benzo[d]thiazol-2-yl(4-(4-fluoropyrazolo[1,5-a]pyridin-2-yl)-1,4,6,7-tetrahydro-5H-imidazo[4,5-c]pyridin-5-yl)methanone]	> 5
Fc1ccc(-c2nnc(N3CCc4[nH]cnc4[C@H]3c3cc4c(Cl)cccn4n3)o2)cc1 [Example 2009, (S)-2-(4-(4-chloropyrazolo[1,5-a]pyridin-2-yl)-1,4,6,7-tetrahydro-5H-imidazo[4,5-c]pyridin-5-yl)-5-(4-fluorophenyl)-1,3,4-oxadiazole]	< 0.5
Cc1cccc2cc([C@@H]3c4nc[nH]c4CCN3c3nnc(-c4ccc(F)cc4)o3)nn12 [Example 2010, (S)-2-(4-fluorophenyl)-5-(4-(7-methylpyrazolo[1,5-a]pyridin-2-yl)-1,4,6,7-tetrahydro-5H-imidazo[4,5-c]pyridin-5-yl)-1,3,4-oxadiazole]	< 0.5
Cc1cccc2cc([C@H]3c4nc[nH]c4CCN3c3nnc(-c4ccc(F)cc4)o3)nn12 [Example 2011, (R)-2-(4-fluorophenyl)-5-(4-(7-methylpyrazolo[1,5-a]pyridin-2-yl)-1,4,6,7-tetrahydro-5H-imidazo[4,5-c]pyridin-5-yl)-1,3,4-oxadiazole]	> 5
FC(F)(F)c1ccc(N2CCc3[nH]cnc3[C@H]2c2cc3c(C(F)(F)F)cccn3n2)nc1 [Example 2013, (S)-4-(4-(trifluoromethyl)pyrazolo[1,5-a]pyridin-2-yl)-5-(5-(trifluoromethyl)pyridin-2-yl)-4,5,6,7-tetrahydro-1H-imidazo[4,5-c]pyridine]	< 0.5
Cn1cc(-c2nnc(C(=O)N3CCc4[nH]cnc4[C@H]3c3cc4c(F)cccn4n3)s2)cn1 [Example 2018, (S)-(4-(4-fluoropyrazolo[1,5-a]pyridin-2-yl)-1,4,6,7-tetrahydro-5H-imidazo[4,5-c]pyridin-5-yl)(5-(1-methyl-1H-pyrazol-4-yl)-1,3,4-thiadiazol-2-yl)methanone]	< 0.5
Cn1cc(-c2nnc(C(=O)N3CCc4[nH]cnc4[C@@H]3c3cc4c(F)cccn4n3)s2)cn1 [Example 2019, (R)-(4-(4-fluoropyrazolo[1,5-a]pyridin-2-yl)-1,4,6,7-tetrahydro-5H-imidazo[4,5-c]pyridin-5-yl)(5-(1-methyl-1H-pyrazol-4-yl)-1,3,4-thiadiazol-2-yl)methanone]	> 5
Cc1cccn2nc([C@@H]3c4nc[nH]c4CCN3C(=O)c3nc4ccccc4o3)cc12 [Example 2020, (S)-benzo[d]oxazol-2-yl(4-(4-methylpyrazolo[1,5-a]pyridin-2-yl)-1,4,6,7-tetrahydro-5H-imidazo[4,5-c]pyridin-5-yl)methanone]	< 0.5
O=C(c1nc2ccccc2s1)N1CCc2[nH]cnc2[C@@H]1c1cc2c(C(F)F)cccn2n1 [Example 2023, (R)-benzo[d]thiazol-2-yl(4-(4-(difluoromethyl)pyrazolo[1,5-a]pyridin-2-yl)-1,4,6,7-tetrahydro-5H-imidazo[4,5-c]pyridin-5-yl)methanone]	> 5
Cc1cccn2nc([C@@H]3c4nc[nH]c4CCN3C(=O)C3CC3)cc12 [Example 2024, (S)-cyclopropyl(4-(4-methylpyrazolo[1,5-a]pyridin-2-yl)-1,4,6,7-tetrahydro-5H-imidazo[4,5-c]pyridin-5-yl)methanone]	< 0.5
Cc1cccn2nc([C@@H]3c4nc[nH]c4CCN3C(=O)[C@H]3CC3(F)F)cc12 [Example 2027, ((R)-2,2-difluorocyclopropyl)((S)-4-(4-methylpyrazolo[1,5-a]pyridin-2-yl)-1,4,6,7-tetrahydro-5H-imidazo[4,5-c]pyridin-5-yl)methanone]	0.5 to 1

The next lines start with the values.

AC50 [µM]	SMILES
< 0.5	O=C(c1nnc(C2CC2)s1)N1CCc2[nH]cnc2[C@H]1c1cc2c(F)cccn2n1 [Example 1993, (S)-(5-cyclopropyl-1,3,4-thiadiazol-2-yl)(4-(4-fluoropyrazolo[1,5-a]pyridin-2-yl)-1,4,6,7-tetrahydro-5H-imidazo[4,5-c]pyridin-5-yl)methanone]
> 5	Cc1cccn2nc([C@H]3c4nc[nH]c4CCN3C(=O)c3nnc(-c4ccn(C)n4)s3)cc12 [Example 1999, (R)-(5-(1-methyl-1H-pyrazol-3-yl)-1,3,4-thiadiazol-2-yl)(4-(4-methylpyrazolo[1,5-a]pyridin-2-yl)-1,4,6,7-tetrahydro-5H-imidazo[4,5-c]pyridin-5-yl)methanone]
1 to 5	O=C(c1nc2ccccc2s1)N1CCc2[nH]cnc2[C@H]1c1cc2ccccn2n1 [Example 2000, (S)-benzo[d]thiazol-2-yl(4-(pyrazolo[1,5-a]pyridin-2-yl)-1,4,6,7-tetrahydro-5H-imidazo[4,5-c]pyridin-5-yl)methanone]
0.5 to 1	Cn1nccc1-c1nnc(C(=O)N2CCc3[nH]cnc3[C@H]2c2cc3ccccn3n2)o1 [Example 2004, (S)-(5-(1-methyl-1H-pyrazol-5-yl)-1,3,4-oxadiazol-2-yl)(4-(pyrazolo[1,5-a]pyridin-2-yl)-1,4,6,7-tetrahydro-5H-imidazo[4,5-c]pyridin-5-yl)methanone]
> 5	Cn1nccc1-c1nnc(C(=O)N2CCc3[nH]cnc3[C@@H]2c2cc3ccccn3n2)o1 [Example 2005, (R)-(5-(1-methyl-1H-pyrazol-5-yl)-1,3,4-oxadiazol-2-yl)(4-(pyrazolo[1,5-a]pyridin-2-yl)-1,4,6,7-tetrahydro-5H-imidazo[4,5-c]pyridin-5-yl)methanone]
< 0.5	Cc1cc(-c2nnc(C(=O)N3CCc4[nH]cnc4[C@H]3c3cc4c(C(C)C)cccn4n3)o2)nn1C [Example 2007, (S)-(5-(1,5-dimethyl-1H-pyrazol-3-yl)-1,3,4-oxadiazol-2-yl)(4-(4-isopropylpyrazolo[1,5-a]pyridin-2-yl)-1,4,6,7-tetrahydro-5H-imidazo[4,5-c]pyridin-5-yl)methanone]
< 0.5	O=C(c1ocnc1C1CC1)N1CCc2[nH]cnc2[C@H]1c1cc2c(C(F)(F)F)cccn2n1 [Example 2014, (S)-(4-cyclopropyloxazol-5-yl)(4-(4-(trifluoromethyl)pyrazolo[1,5-a]pyridin-2-yl)-1,4,6,7-tetrahydro-5H-imidazo[4,5-c]pyridin-5-yl)methanone]
< 0.5	Cn1ccc(-c2nnc(C(=O)N3CCc4[nH]cnc4[C@H]3c3cc4ccccn4n3)s2)n1 [Example 2016, (S)-(5-(1-methyl-1H-pyrazol-3-yl)-1,3,4-thiadiazol-2-yl)(4-(pyrazolo[1,5-a]pyridin-2-yl)-1,4,6,7-tetrahydro-5H-imidazo[4,5-c]pyridin-5-yl)methanone]
> 5	Cn1ccc(-c2nnc(C(=O)N3CCc4[nH]cnc4[C@@H]3c3cc4ccccn4n3)s2)n1 [Example 2017, (R)-(5-(1-methyl-1H-pyrazol-3-yl)-1,3,4-thiadiazol-2-yl)(4-(pyrazolo[1,5-a]pyridin-2-yl)-1,4,6,7-tetrahydro-5H-imidazo[4,5-c]pyridin-5-yl)methanone]
0.5 to 1	O=C(c1nc2ccccc2s1)N1CCc2[nH]cnc2[C@H]1c1cc2c(C(F)F)cccn2n1 [Example 2022, (S)-benzo[d]thiazol-2-yl(4-(4-(difluoromethyl)pyrazolo[1,5-a]pyridin-2-yl)-1,4,6,7-tetrahydro-5H-imidazo[4,5-c]pyridin-5-yl)methanone]
